# According to US8153818B2, “Triazolyl phenyl benzenesulfonamides” (ChemoCentryx, Inc., priority 2006, dated 2012):
# Experiments:
# CCR9 = target: T1, CCR9 (Homo sapiens, UniProt P51686); assay: CCR9 activity in one of the chemotaxis, binding or calcium mobilization assays; format: cell-based; conditions: assay not specified per compound
# T1 construct: chemokine expressing cells (such as THP-1 cells for CCR2 assay or MOLT-4 cells for CCR9 assay); host or cells: MOLT-4
# T1 sequence (P51686 1-369): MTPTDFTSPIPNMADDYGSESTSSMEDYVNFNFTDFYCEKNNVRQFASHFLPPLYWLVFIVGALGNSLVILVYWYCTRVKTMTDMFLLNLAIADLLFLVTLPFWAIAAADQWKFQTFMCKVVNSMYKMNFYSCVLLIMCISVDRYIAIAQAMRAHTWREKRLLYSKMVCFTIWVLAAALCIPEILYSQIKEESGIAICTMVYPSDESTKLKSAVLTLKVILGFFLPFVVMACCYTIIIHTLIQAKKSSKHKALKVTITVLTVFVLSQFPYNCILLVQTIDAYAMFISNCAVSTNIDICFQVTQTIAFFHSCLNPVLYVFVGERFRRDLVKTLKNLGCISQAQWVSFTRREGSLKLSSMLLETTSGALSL
# Method in brief: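 Chemotaxis: THP-1 cells (CCR2, 0.1 nM MCP-1, 90 min) or MOLT-4 cells (CCR9, 50 nM TECK, 150 min) preincubated with compound 15 min RT, migration at 37 °C through 5-μm membrane, CyQUANT read; IC50 by nonlinear regression. Calcium flux: Fluo-4-loaded cells, 0.1 nM MCP-1 or 25 nM TECK. Binding: THP-1, ~50 pM [125I]MCP-1, 3 h, 4 °C.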
# CCR2 = target: T2, CCR2 (Homo sapiens, UniProt P41597); assay: CCR2 activity in one of the chemotaxis, binding or calcium mobilization assays; format: cell-based; conditions: assay not specified per compound
# T2 construct: CCR2 expressing THP-1 cells were centrifuged and resuspended in assay buffer; host or cells: THP-1
# T2 sequence (P41597 1-360 isoform P41597-2): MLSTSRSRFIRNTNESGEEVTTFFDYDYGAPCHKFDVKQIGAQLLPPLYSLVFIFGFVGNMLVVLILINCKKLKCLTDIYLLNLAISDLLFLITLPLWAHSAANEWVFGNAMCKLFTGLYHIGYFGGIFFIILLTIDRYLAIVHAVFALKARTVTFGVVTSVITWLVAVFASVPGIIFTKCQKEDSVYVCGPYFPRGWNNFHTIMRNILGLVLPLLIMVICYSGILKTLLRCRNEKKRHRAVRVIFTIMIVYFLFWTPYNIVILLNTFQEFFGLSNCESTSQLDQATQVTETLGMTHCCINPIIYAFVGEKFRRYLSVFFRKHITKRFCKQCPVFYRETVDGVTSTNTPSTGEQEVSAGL
# Description: Conventional migration assay was used to determine the efficacy of potential receptor antagonists in blocking migration mediated through chemokines (such as CCR2 or CCR9). This assay was routinely performed using the ChemoTX® microchamber system with a 5-μm pore-sized polycarbonate membrane. To begin such an assay, chemokine expressing cells (such as THP-1 cells for CCR2 assay or MOLT-4 cells for CCR9 assay) were harvested by centrifugation of cell suspension at 1000 RPM on a GS-6R Beckman centrifuge. The cell pellet was resuspended in chemotaxis buffer (HBSS with 0.1% BSA) at 10×10^6 cells/mL for CCR2 assay (5×10^6 cells/mL for CCR9 assay). Test compounds at desired concentrations were prepared from 10 mM stock solutions by serial dilutions in chemotaxis buffer. An equal volume of cells and compounds were mixed and incubated at room temperature for 15 minutes. Afterwards, 20 μL of the mixture was transferred onto the porous membrane of a migration microchamber, with 29 μL of chemokine ligand (0.1 nM chemokine MCP-1 protein for CCR2 assay or […] chemokine TECK protein for CCR9 assay) placed at the lower chamber. Following an incubation at 37° C. (90-minute for CCR2; 150-minute for CCR9), during which cells migrated against the chemokine gradient, the assay was terminated by removing the cell drops from atop the filter. To quantify cells migrated across the membrane, 5 μL of 7×CyQUANT® solution was added to each well in the lower chamber, and the fluorescence signal measured on a Spectrafluor Plus fluorescence plate reader (TECAN, Durham, N.C.). The degree of inhibition was determined by comparing migration signals between compound-treated and untreated cells. IC50 calculation was further performed by non-linear squares regression analysis using Graphpad Prism (Graphpad Software, San Diego, Calif.).
# Calcium flux assay measures an increase in intracellular calcium following ligand-induced receptor activation. In the screen of chemokine antagonists, it was used as a secondary assay carried out on a FLIPR® machine (Molecular Devices, Mountain View, Calif.). To begin an assay, chemokine expressing cells (such as THP-1 cells for CCR2 assay or MOLT-4 cells for CCR9 assay) were harvested by centrifugation of cell suspension, and resuspended to 1.5×10^6 cells/mL in HBSS (with 1% fetal calf serum). Cells were then labeled with a calcium indicator dye Fluo-4 AM for 45 minutes at 37° C. with gentle shaking. Following incubation, cells were pelletted, washed once with HBSS and resuspended in the same buffer at a density of 1.6×10^6 cells/mL. One hundred microliters of labeled cells were mixed with 10 μL of test compound at the appropriate concentrations on an assay plate. Chemokine protein (MCP-1 at a final concentration of 0.1 nM for CCR2 assay or TECK at a final concentration of 25 nM for CCR9 assay) to activate the receptor. The degree of inhibition was determined by comparing calcium signals between compound-treated and untreated cells. IC50 calculations were further performed by non-linear squares regression analysis using Graphpad Prism (Graphpad Software, San Diego, Calif.).
# Ligand binding assay was used to determine the ability of potential CCR2 antagonists to block the interaction between CCR2 and its ligand MCP-1. CCR2 expressing THP-1 cells were centrifuged and resuspended in assay buffer (20 mM HEPES pH 7.1, 140 mM NaCl, 1 mM CaCl2, 5 mM MgCl2, and with 0.2% bovine serum albumin) to a concentration of 2.2×10^5 cells/mL. Binding assays were set up as follows. […]
IC50 (CCR9),IC50 (CCR2),Compound
< 1000 nM,,"CC1(c2ccc(S(=O)(=O)Nc3ccc(Cl)cc3-c3nncn3[C@H]3CCNC3)cc2)CCOCC1 [Compound 142, (S)—N-(4-chloro-2-(4-(pyrrolidin-3-yl)-4H-1,2,4-triazol-3-yl)phenyl)-4-(4-methyltetrahydro-2H-pyran-4-yl)benzenesulfonamide]"
< 1000 nM,,CC(C)(C)c1ccc(S(=O)(=O)Nc2ccc(Cl)cc2-c2nncn2[C@H]2CCN(C(N)=O)C2)cc1 [Compound 143]
< 1000 nM,,Cn1c(CN2CCOCC2)nnc1-c1cc(Cl)ccc1NS(=O)(=O)c1ccc(C(C)(C)C)cc1 [Compound 144]
< 1000 nM,,Cn1c(-c2cc(Cl)c(F)cc2NS(=O)(=O)c2ccc(C(C)(C)C)cc2)nnc1C1CCCNC1 (centres unmarked) [Compound 145]
< 1000 nM,,CC(C)c1nnc(-c2cc(Cl)c(F)cc2NS(=O)(=O)c2ccc(C(C)(C)C)cc2)n1[C@H]1CCNC1 [Compound 146]
< 1000 nM,,Cn1c(CN2CCNCC2)nnc1-c1cc(Cl)c(F)cc1NS(=O)(=O)c1ccc(C(C)(C)C)cc1 [Compound 147]
< 1000 nM,,Cn1c(CN[C@H]2CCOC2)nnc1-c1cc(Cl)c(F)cc1NS(=O)(=O)c1ccc(C(C)(C)C)cc1 [Compound 148]
< 1000 nM,,"COCCN(C)Cc1nnc(-c2cc(Cl)c(F)cc2NS(=O)(=O)c2ccc(C(C)(C)C)cc2)n1C [Compound 149, 4-tert-butyl-N-(4-chloro-5-fluoro-2-(5-(((2-methoxyethyl)(methyl)amino)methyl)-4-methyl-4H-1,2,4-triazol-3-yl)phenyl)benzenesulfonamide]"
< 1000 nM,,CC(C)n1c(-c2cc(Cl)ccc2NS(=O)(=O)c2ccc(C(C)(C)C)cc2)nnc1C1(C)CCOCC1 [Compound 150]
< 1000 nM,,CN1CCN(Cc2nnc(-c3cc(Cl)c(F)cc3NS(=O)(=O)c3ccc(C(C)(C)C)cc3)n2C)CC1 [Compound 151]
< 1000 nM,,Cn1c(CNC2CCOCC2)nnc1-c1cc(Cl)c(F)cc1NS(=O)(=O)c1ccc(C(C)(C)C)cc1 [Compound 152]
< 1000 nM,,CC(C)(C)c1ccc(S(=O)(=O)Nc2ccc(Cl)cc2-c2nncn2[C@H]2CCN(S(C)(=O)=O)C2)cc1 [Compound 153]
< 1000 nM,,CC(C)n1c(CN2CCOCC2)nnc1-c1cc(Cl)c(F)cc1NS(=O)(=O)c1ccc(C(C)(C)C)cc1 [Compound 154]
< 1000 nM,,Cc1nnc(-c2cc(Cl)ccc2NS(=O)(=O)c2ccc(C(C)(C)C)cc2)n1C1CCN(C)CC1 [Compound 155]
< 1000 nM,,"CC(C)(C)c1ccc(S(=O)(=O)Nc2ccc(Cl)cc2-c2nnc3ncccn23)cc1 [Compound 156, N-(2-([1,2,4]triazolo[4,3-a]pyrimidin-3-yl)-4-chlorophenyl)-4-tert-butylbenzenesulfonamide]"
,< 1000 nM,O=S(=O)(Nc1cc(Cl)ccc1-c1nncn1-c1cc[nH]n1)c1ccc(Cl)c(C(F)(F)F)c1 [Compound 157]
,< 1000 nM,Cc1nnc(-c2ccc(Cl)cc2NS(=O)(=O)c2ccc(Cl)c(C(F)(F)F)c2)n1-c1cc[nH]n1 [Compound 158]
,< 1000 nM,"O=S(=O)(Nc1cc(Cl)ccc1-c1nncn1-c1ccccc1)c1ccc(Cl)c(C(F)(F)F)c1 [Compound 159, 4-chloro-N-(5-chloro-2-(4-phenyl-4H-1,2,4-triazol-3-yl)phenyl)-3-(trifluoromethyl)benzenesulfonamide]"
,< 1000 nM,"O=S(=O)(Nc1cc(Cl)c(F)cc1-c1nncn1-c1cc[nH]n1)c1ccc(Cl)c(C(F)(F)F)c1 [Compound 160, N-(2-(4-(1H-pyrazol-3-yl)-4H-1,2,4-triazol-3-yl)-5-chloro-4-fluorophenyl)-4-chloro-3-(trifluoromethyl)benzenesulfonamide]"
,< 1000 nM,"NC(=O)c1nnc(-c2cc(F)c(Cl)cc2NS(=O)(=O)c2ccc(Cl)c(C(F)(F)F)c2)n1-c1cc[nH]n1 [Compound 161, 5-(4-chloro-2-(4-chloro-3-(trifluoromethyl)phenylsulfonamido)-5-fluorophenyl)-4-(1H-pyrazol-3-yl)-4H-1,2,4-triazole-3-carboxamide]"
